Experimental findings from US9481648B2, “Kinase inhibitors” (Respivert Limited, priority 2013, dated 2016) are described below.

In this assay the target is GSK 3α (Homo sapiens (Human), UniProt P49840). The experiment in a line: GSK 3α enzyme inhibition (FRET, Z-LYTE; Method 2). Type of assay: biochemical. The following applies: read-out: IC50 Values for Enzyme Inhibition GSK3α. Here is the method: The enzyme inhibitory activities of compounds disclosed herein are determined by FRET using synthetic peptides labelled with both donor and acceptor fluorophores (Z-LYTE, Invitrogen Ltd., Paisley, UK).
GSK 3α, sequence (P49840 whole entry, canonical isoform): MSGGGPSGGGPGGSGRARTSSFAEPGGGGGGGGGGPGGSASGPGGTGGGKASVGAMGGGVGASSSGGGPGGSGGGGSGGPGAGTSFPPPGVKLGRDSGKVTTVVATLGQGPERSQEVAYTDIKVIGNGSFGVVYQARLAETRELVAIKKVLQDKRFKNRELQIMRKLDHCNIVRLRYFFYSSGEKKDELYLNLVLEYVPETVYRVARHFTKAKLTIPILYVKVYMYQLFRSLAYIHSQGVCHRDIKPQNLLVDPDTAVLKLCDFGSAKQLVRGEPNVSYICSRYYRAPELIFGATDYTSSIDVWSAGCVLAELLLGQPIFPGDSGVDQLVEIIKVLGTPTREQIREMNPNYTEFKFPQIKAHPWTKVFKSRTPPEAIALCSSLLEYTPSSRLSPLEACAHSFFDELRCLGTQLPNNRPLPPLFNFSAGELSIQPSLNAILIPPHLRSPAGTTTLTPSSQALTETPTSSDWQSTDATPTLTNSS
The inhibitory activities of compounds of the invention against the GSK 3α enzyme isoform (Invitrogen), are evaluated by determining the level of activation I phosphorylation of the target peptide. The GSK3-α protein (500 ng/mL, 2.5 μL) is mixed with the test compound (2.5 μL at either 4 μg/mL, 0.4 μg/mL, 0.04 μg/mL, or 0.004 μg/mL) for 2 hr at RT. The FRET peptide (8 μM, 2.5 μL), which is a phosphorylation target for GSK3α, and ATP (40 μM, 2.5 μL) are then added to the enzyme\compound mixture and the resulting mixture incubated for 1 hr. Development reagent (protease, 5 μL) is added for 1 hr prior to detection in a fluorescence microplate reader (Varioskan® Flash, ThermoFisher Scientific).
In all cases, the site-specific protease cleaves non-phosphorylated peptide only and eliminates the FRET signal. Phosphorylation levels of each reaction are calculated using the ratio of coumarin emission (donor) over fluorescein emission (acceptor), for which high ratios indicate high phosphorylation and low ratios indicate low phosphorylation levels.
This method follows the same steps as Method 1 above, but utilises a shorter period of mixing of the test compound (105 minutes instead of 2 hours) with the GSK3-α protein. In addition, the concentrations of test compound employed are either 10 μg/mL, 1 μg/mL, 0.1 μg/mL, or 0.01 μg/mL

For `CCNC(=O)c1cc(C(C)(C)C)cc(NC(=O)Nc2ccc(Oc3ccnc(Nc4cc(OC)cc(OCCOCCOCCOC)c4)n3)c3ccccc23)c1OC` [Example 41, 5-(tert-Butyl)-N-ethyl-2-methoxy-3-(3-(4-((2-((3-methoxy-5-(2-(2-(2-methoxyethoxy)-ethoxy)ethoxy)phenyl)amino)pyrimidin-4-yl)oxy)naphthalen-1-yl)ureido)benzamide], the half-maximal inhibitory concentration (IC50) came to 446 nM.

For the compound `COCCOCCOCCOc1cc(Nc2nccc(Oc3ccc(NC(=O)Nc4cc(C(C)(C)C)cc(C(=O)NC(C)C)c4OC)c4ccccc34)n2)cc(OC)c1` [Example 42, 5-(tert-Butyl)-N-isopropyl-2-methoxy-3-(3-(4-((2-((3-methoxy-5-(2-(2-(2-methoxyethoxy)-ethoxy)ethoxy)phenyl)amino)pyrimidin-4-yl)oxy)naphthalen-1-yl)ureido)benzamide], the concentration for half-maximal inhibition (IC50) was found to be 705 nM.

In the case of `COCCNC(=O)c1cc(C(C)(C)C)cc(NC(=O)Nc2ccc(Oc3ccnc(Nc4cc(OC)cc(OCCOCCOCCOC)c4)n3)c3ccccc23)c1OC` [Example 43, 5-(tert-Butyl)-2-methoxy-3-(3-(4-((2-((3-methoxy-5-(2-(2-(2-methoxyethoxy)ethoxy)-ethoxy)phenyl)amino)pyrimidin-4-yl)oxy)naphthalen-1-yl)ureido)-N-(2-methoxyethyl)-benzamide], the IC50 worked out at 520 nM.

Consider `COCCOCCOCCOc1cc(Nc2nccc(Oc3ccc(NC(=O)Nc4cc(C(C)(C)C)cc(C(=O)NCC(=O)O)c4OC)c4ccccc34)n2)cc(OC)c1` [Example 44, 2-(5-(tert-Butyl)-2-methoxy-3-(3-(4-((2-((3-methoxy-5-(2-(2-(2-methoxyethoxy)ethoxy)-ethoxy)phenyl)amino)pyrimidin-4-yl)oxy)naphthalen-1-yl)ureido)benzamido)acetic acid], for which the IC50 was determined as 80 nM.

For the compound `COc1cc(Nc2nccc(Oc3ccc(NC(=O)Nc4cc(C(C)(C)C)cc(NS(C)(=O)=O)c4OC)c4ccccc34)n2)cc(C(=O)C2CC2)c1` [Example 50, N-(5-(tert-Butyl)-3-(3-(4-((2-((3-(cyclopropanecarbonyl)-5-methoxyphenyl)amino)-pyrimidin-4-yl)oxy)naphthalen-1-yl)ureido)-2-methoxyphenyl)methanesulfonamide], the IC50 came to 13800 nM.

For `C#Cc1cc(Nc2nccc(Oc3ccc(NC(=O)Nc4cc(C(C)(C)C)cc(C(=O)NC)c4OC)c4ccccc34)n2)cc(C(=O)N[C@@H](C)CN2CCOCC2)c1` [Example 60, (S)-5-(tert-Butyl)-3-(3-(4-((2-((3-ethynyl-5-((1-morpholinopropan-2-yl)carbamoyl)phenyl)amino)pyrimidin-4-yl)oxy)naphthalen-1-yl)ureido)-2-methoxy-N-methylbenzamide], the half-maximal inhibitory concentration (IC50) came to 539 nM.

As to `C#Cc1cc(Nc2nccc(Oc3ccc(NC(=O)Nc4cc(C(C)(C)C)cc(C(=O)NC)c4OC)c4ccccc34)n2)cc(C(=O)N[C@H](C)CN2CCOCC2)c1` [Example 61, (R)-5-(tert-Butyl)-3-(3-(4-((2-((3-ethynyl-5-((1-morpholinopropan-2-yl)carbamoyl)phenyl)amino)pyrimidin-4-yl)oxy)naphthalen-1-yl)ureido)-2-methoxy-N-methylbenzamide], the IC50 came out at 372 nM.

`COCCOCCOCCOc1cc(Nc2nccc(Oc3ccc(NC(=O)Nc4cc(C(C)(C)C)cc5[nH]c(=O)oc45)c4ccccc34)n2)cc(OC)c1` [Example 63, 1-(5-(tert-Butyl)-2-oxo-2,3-dihydrobenzo[d]oxazol-7-yl)-3-(4-((2-((3-methoxy-5-(2-(2-(2-methoxyethoxy)ethoxy)ethoxy)phenyl)amino)pyrimidin-4-yl)oxy)naphthalen-1-yl)urea]: the half-inhibitory concentration (IC50) stood at 829 nM.

In the case of `COCCOCCOCCOc1cc(Nc2nccc(Oc3ccc(NC(=O)Nc4cc(C(C)(C)C)cc5nc(C)oc45)c4ccccc34)n2)cc(OC)c1` [Example 64, 1-(5-(tert-Butyl)-2-methylbenzo[d]oxazol-7-yl)-3-(4-((2-((3-methoxy-5-(2-(2-(2-methoxy-ethoxy)ethoxy)ethoxy)phenyl)amino)pyrimidin-4-yl)oxy)naphthalen-1-yl)urea], the IC50 was found to be 1460 nM.

Take `COCCOCCOCCOc1cc(Nc2nccc(Oc3ccc(NC(=O)Nc4cc(C(C)(C)C)cc(NS(=O)(=O)C(F)(F)F)c4OC)c4ccccc34)n2)cc(OC)c1` [Example 71]: the IC50 is 2620 nM.

In the case of `COCCOCCOCCOc1cc(Nc2nccc(Oc3ccc(NC(=O)Nc4cc(C(C)(C)C)cc(NS(=O)(=O)C5CCCCC5)c4OC)c4ccccc34)n2)cc(OC)c1` [Example 72, N-(5-(tert-Butyl)-2-methoxy-3-(3-(4-((2-((3-methoxy-5-(2-(2-(2-methoxyethoxy)ethoxy)-ethoxy)phenyl)amino)pyrimidin-4-yl)oxy)naphthalen-1-yl)ureido)phenyl)cyclohexane-sulfonamide], the IC50 came out at 11300 nM.

For the compound `COCCOCCOCCOc1cc(Nc2nccc(Oc3ccc(NC(=O)Nc4cc(C(C)(C)C)cc(NS(=O)(=O)N5CCCCC5)c4OC)c4ccccc34)n2)cc(OC)c1` [Example 73, N-(5-(tert-Butyl)-2-methoxy-3-(3-(4-((2-((3-methoxy-5-(2-(2-(2-methoxyethoxy)ethoxy)-ethoxy)phenyl)amino)pyrimidin-4-yl)oxy)naphthalen-1-yl)ureido)phenyl)piperidine-1-sulfonamide], the IC50 is 11300 nM.

As to `COCCOCCOCCOc1cc(Nc2nccc(Oc3ccc(NC(=O)Nc4cc(C(C)(C)C)cc(NS(=O)(=O)N(C)C)c4OC)c4ccccc34)n2)cc(OC)c1` [Example 74, N-(5-(tert-Butyl)-2-methoxy-3-(3-(4-((2-((3-methoxy-5-(2-(2-(2-methoxyethoxy)ethoxy)-ethoxy)phenyl)amino)pyrimidin-4-yl)oxy)naphthalen-1-yl)ureido)phenyl)dimethylamino-sulfonamide], the IC50 amounted to 9680 nM.

`COc1c(NC(=O)Nc2ccc(Oc3ccnc(Nc4ccccc4)n3)c3ccccc23)cc(C(C)(C)C)cc1C(=O)NC1COC1` [Example 78, 5-(tert-Butyl)-2-methoxy-N-(oxetan-3-yl)-3-(3-(4-((2-(phenylamino)pyrimidin-4-yl)oxy)-naphthalen-1-yl)ureido)benzamide]: the IC50 worked out at 896 nM.

On to `COc1c(NC(=O)Nc2ccc(Oc3ccnc(Nc4ccccc4)c3)c(F)c2F)cc(C(C)(C)C)cc1C(=O)NC1COC1` [Example 82, 5-(tert-Butyl)-3-(3-(2,3-difluoro-4-((2-(phenylamino)pyridin-4-yl)oxy)phenyl)ureido)-2-methoxy-N-(oxetan-3-yl)benzamide], for which the IC50 worked out at 182 nM.

In the case of `C#Cc1cc(Nc2cc(Oc3ccc(NC(=O)Nc4cc(C(C)(C)C)cc(NS(C)(=O)=O)c4OC)c4ccccc34)ccn2)cc(C(=O)NCCN2CCN(C)CC2)c1` [Example 85(c), 3-[[4-[[4-[[5-tert-Butyl-3-(methanesulfonamido)-2-methoxyphenyl]-carbamoylamino]-1-nahthyl]oxy]-2-pyridyl]amino]-5-ethynyl-N-[2-(4-methylpiperazin-1-yl)ethyl]benzamide], the half-inhibitory concentration (IC50) stood at 3560 nM.

Turning to `COc1cc(Nc2nccc(Oc3ccc(NC(=O)Nc4cc(C(C)(C)C)cc(NS(C)(=O)=O)c4OC)c4ccccc34)n2)cc(C(=O)NCCN2CCN(C)CC2)c1` [Example 85(e), 3-[[4-[[4-[[5-tert-Butyl-3-(methanesulfonamido)-2-methoxyphenyl]-carbamoylamino]-1-naphthyl]oxy]pyrimidin-2-yl]amino]-5-methoxy-N-[2-(4-methyypiperazin-1-yl)ethyl]benzamide], the half-maximal inhibitory concentration (IC50) worked out at 300 nM.

By IC50 is commonly meant the midpoint of a concentration-inhibition curve.
